In ChEMBL document CHEMBL1132100, “Sodium channel activity and sigma binding of 2-aminopropanamide anticonvulsants” (Bioorg Med Chem Lett, 1999):

Columns and labels:
[1] = molecular target: Sigma non-opioid intracellular receptor 1 (Rattus norvegicus, UniProt Q9R0C9); assay: Inhibition of [3H]pentazocine binding to Opioid receptor sigma 1
[2] = molecular target: T1, Sodium channel alpha subunits; brain (Types I, II, III) (Rattus norvegicus, UniProt P04775+P04774+P08104); assay: Inhibition of [3H]batrachotoxin binding to rat brain sodium channel
[3] = Protective index (PI) is the ratio of TD50 in the rotarod test over the ED50 in the anticonvulsant test.; format: functional
[4] = species: Mus musculus; assay: Toxic dose causing 50% treated mice fall from the rotarod was evaluated
[5] = tested on: Rattus norvegicus; assay: Tested for the anticonvulsant activity administered 60 min orally before MES induction; format: functional; conditions: po, 1 h
[6] = molecular target: T1, Sodium channel alpha subunits; brain (Types I, II, III); assay: Inhibition of [3H]saxitoxin binding to rat brain sodium channel; format: tissue-based
[7] = Lethal dose in rats; format: toxicity; conditions: rat, in vivo

Sigma non-opioid intracellular receptor 1, sequence (Q9R0C9 whole entry): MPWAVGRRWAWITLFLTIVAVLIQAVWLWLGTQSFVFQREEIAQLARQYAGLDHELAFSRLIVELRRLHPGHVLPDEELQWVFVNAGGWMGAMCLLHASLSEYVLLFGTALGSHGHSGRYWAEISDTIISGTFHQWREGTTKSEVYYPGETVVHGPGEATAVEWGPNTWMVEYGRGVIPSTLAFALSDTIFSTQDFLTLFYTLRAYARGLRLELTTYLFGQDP

| Compound | IC50 [1] | IC50 [2] | PI [3] | TD50 [4] | ED50 [5] | IC50 [6] | LD50 [7] | IC50 ([2]; read-out: IC50) |
| --- | --- | --- | --- | --- | --- | --- | --- | --- |
| CNC(=O)[C@@H](CO)NCc1ccc(OCc2cccc(F)c2)cc1 | 6.6 µM | 17.9 µM | 92.6 | 593 mg/kg | 6.4 mg/kg | > 300 µM |  |  |
| C[C@H](NCc1ccc(NCc2cccc(F)c2)cc1)C(N)=O | 0.0344 µM | 13.9 µM | 88.3 | 583 mg/kg | 6.6 mg/kg | > 300 µM |  |  |
| C[C@H](NCc1ccc(OCCCc2ccccc2)cc1)C(N)=O | 0.0193 µM | 13.2 µM | 87.2 | 584 mg/kg | 6.7 mg/kg | > 300 µM |  |  |
| C[C@@H](NCc1ccc(NCc2cccc(F)c2)cc1)C(N)=O | 0.28 µM | 11.3 µM | 160 | 272 mg/kg | 1.7 mg/kg | > 300 µM |  |  |
| C[C@@H](NCc1ccc(OCc2cccc(F)c2)cc1)C(N)=O | 0.28 µM | 8.5 µM | 87.8 | 584 mg/kg | 7.2 mg/kg | > 300 µM |  |  |
| CNC(=O)[C@H](CO)NCc1ccc(OCc2cccc(F)c2)cc1 | 0.588 µM | 26.3 µM | 70.4 | 915 mg/kg | 13 mg/kg | > 300 µM |  |  |
| COc1ccc2c(c1)[C@]13CCCC[C@@H]1[C@H](C2)N(C)CC3 [DEXTROMETHORPHAN] |  | 1.3 µM |  |  | 12.9 mg/kg | > 100 µM | 234 mg/kg |  |
| COc1ccc(CN[C@@H](C)C(N)=O)cc1 | > 10 µM | 145.8 µM |  |  | > 100 mg/kg | > 300 µM |  |  |
| C[C@H](NCc1ccc(OCc2ccccc2)cc1)C(=O)O |  | 150.8 µM |  |  | > 100 mg/kg | > 300 µM |  |  |
| C[C@H](NCc1ccc(OCCCCc2ccccc2)cc1)C(N)=O | 0.55 µM | 1.1 µM | 81 | 1000 mg/kg | 12.4 mg/kg | > 300 µM |  |  |
| C[C@@H](NCc1ccc(OCCCc2ccccc2)cc1)C(N)=O | 0.28 µM | 7.8 µM | 102 | 1280 mg/kg | 12.6 mg/kg | > 300 µM |  |  |
| CS(=O)(=O)O.C[C@H](NCc1ccc(OCc2cccc(F)c2)cc1)C(N)=O [SAFINAMIDE MESYLATE] | 0.0197 µM |  | 78.2 | 626 mg/kg | 8 mg/kg | > 300 µM |  | 8.2 µM |
| Nc1nnc(-c2cccc(Cl)c2Cl)c(N)n1 [LAMOTRIGINE] | > 10 µM | 185.9 µM | 38.2 | 84 mg/kg | 2.2 mg/kg | > 100 µM |  |  |
| C[C@H](NCc1ccc(OCCCCCc2ccccc2)cc1)C(N)=O | > 10 µM | 1.4 µM | 80.8 | 1010 mg/kg | 12.5 mg/kg | > 300 µM |  |  |
